Measured values from US20150126530A1, “Novel Substituted Imidazopyrimidines as Gpbar1 Receptor Modulators” (Torrent Pharmaceuticals Limited., priority 2011, published 2015).

Assays:
human TGR5 [1] = target: T1, human TGR5 (Homo sapiens, UniProt Q8TDU6); test: cAMP Measurement Assay (Alphascreen); type: cell-based; conditions: cAMP levels, CHO cells transfected with human TGR5, one hour
T1 construct: host or cells: CHO cells (ATCC)
T1 sequence (Q8TDU6 1-330): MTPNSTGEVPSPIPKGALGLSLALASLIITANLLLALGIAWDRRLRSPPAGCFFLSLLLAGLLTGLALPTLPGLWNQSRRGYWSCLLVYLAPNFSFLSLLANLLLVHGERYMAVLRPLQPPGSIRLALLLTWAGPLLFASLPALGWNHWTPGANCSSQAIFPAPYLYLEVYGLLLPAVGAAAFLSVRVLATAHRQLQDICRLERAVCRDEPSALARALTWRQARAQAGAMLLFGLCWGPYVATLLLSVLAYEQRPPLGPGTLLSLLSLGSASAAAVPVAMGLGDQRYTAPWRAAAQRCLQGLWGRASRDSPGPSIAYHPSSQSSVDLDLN
Protocol: (B) cAMP Measurement Assay:
CHO cells (ATCC) were transfected with human TGR5 vector (oriGene). Transfected cells were treated with vehicle control or test compounds for one hour and then lysed. Levels of cAMP were measured in cell lysates employing Alphascreen cAMP assay kit (Perkin Elmer) and results were expressed EC50 values which are summarized in Table 3.

Diabetic Hamster [2] = test: Efficacy study on repeated dosing in diabetic hamster; type: in vivo; conditions: four week; for % Change in body wt from basal / AUC_glucose % change during OGTT / Fasting plasma TG / Oxygen consumption: 6 mg/kg, i.p. OD
Protocol: (§1) ii) Evaluation of Efficacy of Test Compounds on Repeated Dosing in Diabetic Hamster and DIO Mice. […]
a) Efficacy Study in Diabetic Hamster
Diabetic hamsters were randomized to two treatment groups viz. vehicle treated and test compound treated group. Then the animals were treated with compound 7 of present invention or vehicle for 2 weeks to assess the efficacy potential of the compound. Effect of treatment on glucose excursion and insulin secretion during OGTT, change in body weight & fasting and random plasma triglycerides (TG) was evaluated during the treatment period. The effect of repeated administration of compound on energy expenditure was evaluated through monitoring oxygen consumption (VO2) over 21 hrs period by indirect calorimetry (Oxymax System, Columbus Instruments). HOMA-IR an index of insulin resistance was estimated using fasting glucose and insulin levels estimated during OGTT.
Similarly, the study was conducted using compound no 50 of the present invention for the duration of four week period in Diabetic hamsters.

human TGR5 [3] = target: T1, human TGR5; test: cAMP Responsive Element (CRE)-Reporter Assay; type: cell-based; conditions: luciferase activity relative to vehicle control, five hours, CHO cells transfected with human TGR5 and CRE-luciferase
Protocol: (A) cAMP Responsive Element (CRE)-Reporter Assay:
CHO cells (ATCC) were transfected with human TGR5 (oriGene) and CRE-luciferase reporter vector. Transfected cells were treated with vehicle control or test compounds (Conc 10 μM) for five hours and then lysed. Cell lysates were monitored for luciferase acivity. Increase in luciferase activity is considered as a result of TGR5 activation. Results were expressed as fold induction as compared to vehicle control.
Results are summarized in Table 2 where, + indicates 1.5-2 fold while ++, +++, ++++ indicate 2-3 fold, 3-4 fold, and >4 fold induction respectively relative to vehicle control when tested at 10 μM concentration.

Diabetic Hamster [4] = test: Single dose efficacy on glucose tolerance (OGTT) in diabetic hamster; type: in vivo; conditions: Mesocricetus auratus, single oral dose 40 mg/kg, read-out: Decrease in AUC of glucose % change w.r.t. vehicle control group
Protocol: i) Evaluation of Single Dose Efficacy of Test Compounds on Glucose Tolerance:
Thus efficacy can be assessed through the effect of test compounds on lowering of plasma glucose during OGTT through stimulating glucose stimulated insulin secretion.
The potential of test compounds in lowering of Plasma Glucose was evaluated in Oral glucose tolerance test (OGTT) in Diabetic Hamster Model, where diabetes has been induced by administration of low dose of Streptozotocin (STZ) to the High fat diet (HFD) fed glucose intolerant animals. The diabetic hamsters show impaired glucose stimulated insulin secretion and higher plasma glucose excursions than the normal animals, which remains elevated beyond 2 hrs post glucose load. Thus the animal model can be used for evaluating the potential of test compounds to lower plasma glucose through stimulating glucose stimulated insulin secretion. On the day of study post 6 hrs of fasting, test compounds or vehicle was administered orally at dose volume of 2 ml/kg to the hamsters of the respective treatment groups. Subsequent to dosing, a pre-glucose load blood sample was taken. A glucose load of 40% solution at 5 ml/Kg dose volume was administered orally. Blood samples through retroorbital plexus were taken at 15, 30 60 & 120 min. post glucose load and plasma was separated for glucose measurement. Post glucose load percentage change in plasma glucose and AUC of % change glucose by the treatment was assessed.

[5] = tested on: Human enteroendocrine cell-line (NCI-H716); test: Measurement of Glucagon Like Peptide-1 (GLP-1) secretion; type: cell-based; conditions: NCI-H716 cells, one hour, with respect to vehicle control
Protocol: (C) Measurement of Glucagon Like Peptide-1 (GLP-1):
Human enteroendocrine cell-line (NCI-H716) were incubated with vehicle or test compounds for one hour. At the end of incubation period, levels of secreted GLP-1 in culture medium were measured by GLP-1 ELISA kit (Millipore). Results are summarized as fold increase in GLP secretion with respect to vehicle control in Table 4.

DIO mice = test: Efficacy study on repeated dosing in DIO mice; type: in vivo; conditions: 9 mg/kg, od; for % Change in body wt from basal: repeated administration
Protocol: as §1
b) Efficacy Study in DIO Mice
Male C57B1/6J mice were made insulin resistant by feeding on High fat diet (45.5% Kcal from Fat, Research Diet) from the age of 6-8 week onwards. After being on High fat diet for 6-8 weeks the animals with similar body weights & fasting plasma glucose were further randomized into treatment groups. Then the animals were treated with compounds 7 to assess the efficacy potential during treatment duration. Effect of treatment on glucose excursion and insulin secretion during OGTT, Fasting Plasma Glucose & Insulin, lipid profile and body weight were evaluated. The compound for enhancing energy expenditure was evaluated by monitoring oxygen consumption (VO2) and carbon dioxide release (VCO2) over 24 hrs period by indirect calorimetry (Oxymax System, Columbus Instruments).
Similarly, the study was conducted in DIO mice with compound no 50 of the present invention.

[6] = listed as compound no. 50, 6 mg/kg
[7] = compound no. 50 repeated dosing
[8] = listed as compound no. 50, 9 mg/kg

## CN(C(=O)c1c(Oc2ccc(F)cc2)nc2ncccn12)c1ccc(Cl)cc1 [Compound no. 50, N-(4-chlorophenyl)-2-(4-fluorophenoxy)-N-methylimidazo[1,2-a]pyrimidine-3-carboxamide]
Human TGR5 [1]
  EC50: 0.354 µM
Diabetic Hamster [2]
  % Change in body wt from basal: −1.56%
  AUC_glucose % change during OGTT: 6225.7
  Fasting plasma TG: 97.8 mg/dL
  Oxygen consumption: 25.0092 mL/min/kg
Diabetic Hamster [2]; [6]
  % Change in body wt from basal: reduced body weight
  AUC_glucose % change during OGTT: reduced glucose excursion
  Fasting plasma TG: decreased plasma TG levels
  Oxygen consumption: increased energy expenditure
Diabetic Hamster [2]; [7]
  decrease in LDL: 16%
  decrease in non HDL: 24%
  improvement in HDL:LDL ratio: 16%
Human TGR5 [3]
  fold induction at 10 µM: > 4
Diabetic Hamster [4]
  inhibition in vivo at 40 mg/kg: 10%
[5]
  Fold increase in GLP Release: 1.74 fold
DIO mice
  AUC_Insulin % change during OGTT: 12938.8
  AUC_glucose % change during OGTT: 7763.5
  HOMA-IR: 1.96
  Oxygen consumption: 46.125 mL/min/kg
  % Change in body wt from basal: −3.29%
DIO mice; [8]
  AUC_Insulin % change during OGTT: improved insulin secretion
  AUC_glucose % change during OGTT: reduced glucose excursion
  HOMA-IR: decrease in HOMA-IR
  Oxygen consumption: increased energy expenditure
  % Change in body wt from basal: reduced body weight
